Measurements: article PMC7356761 (Molecules, 2020)
“And” between values parts separate entries of the source, which are not always exact repeats. Equal entries are not always repeated. “Also recorded” adds a separate entry of the source.

Key:
H1975 tumor = experiment: Biodistribution in tumor-bearing mice, H1975 tumor; type: in vivo, mouse; settings: for effect of CO-1686 pretreatment on accumulation in H1975 tumor: excess dose CO-1686 (30 mg/kg i.p.) 1 h prior
Procedure: (§1) Male ddY mice (27–30 g, 6 weeks old) and female BALB/c nu/nu mice (12–17 g, 4 weeks old) were purchased from Japan SLC Inc. (Hamamatsu, Japan). The mice were housed in a cage with free access to food and water maintained at a constant temperature (23–25 °C) with a 12 h light/dark cycle. […] The tumor reached palpable size 2- and 3-weeks post-inoculation. Animal experiments were conducted in accordance with laboratory guidelines for the care and use of animals of Kanazawa University. The animal handling protocol was approved by the Kanazawa University Animal Care Committee (approval number: AP-163766). 3.10. Biodistribution Studies Mice were injected intravenously via the lateral tail vein with a saline solution of [^125I]10 (25 kBq, 100 μL) containing 1% tween-80 and 10% ethanol. The ddY mice were sacrificed at 10 min, 1, 4 and 24 h; meanwhile, the tumor-bearing mice were sacrificed at 1 and 4 h post injection. The selected tissues and organs were collected and weighed and their radioactivity was measured using an auto well gamma counter. […] The mice were sacrificed 1 h after the administration of radiotracer. The biodistribution data are expressed as percent injected dose per gram of tissue (% ID/g) along with the SD.

[1] = In vitro stability in PBS; type: physicochemical; settings: 0.1 M PBS pH 7.4, 37 °C
Procedure: (§2) 3.7. In Vitro Stability Experiments
The in vitro stability of [^125I]10 was examined in phosphate buffered saline (PBS) and mouse plasma. Briefly, [^125I]10 solution (50 µL) in a sealed tube containing 0.1 M PBS pH 7.4 (450 µL) was incubated at 37 °C for 1 and 24 h. After incubation, the purities of radiotracers were analyzed by RP-HPLC with mobile phase system water (A) and methanol (B), B: 70–100%, 20 min using a Cosmosil® 5C18 MSII (4.6 ID × 150 mm) column, a flow rate 1 mL/min. The column temperature was kept at 40 °C.

[2] = test system: H3255 cells (L858R active mutant EGFR); experiment: Cellular uptake study, H3255; type: cell-based, human
Procedure: (§3) 3.8. Cellular Uptake Studies
(§4) Then, the cell culture was incubated in a serum-free medium containing [^125I]10 (3.7 kBq/well) for 4 h. The medium from each well was removed and the cells were washed with 1 mL of ice-cold PBS. Finally, all cell fractions were lysed twice with 0.5 mL of 1 M NaOH aqueous solution. The radioactivity of every fraction was determined by an auto well gamma counter. Total cell protein was determined using the Bicinchoninic Acid (BCA) Protein Assay Kit (Nacalai) protocol, which uses bovine serum albumin as a standard reference. […]. All data were expressed as percent dose per milligram of protein (% dose/mg protein) ± SD.

[3] = Biodistribution in normal ddY mice; type: in vivo, mouse
Procedure: as §1

[4] = test system: H441 cells (wild-type EGFR); experiment: Cellular uptake study, H441; type: cell-based, human; settings: H441, 4 h incubation
Procedure: as §3, §4

[5] = In vitro stability in murine plasma; type: in vitro ADME, mouse; settings: 37 °C
Procedure: as §2
The plasma was prepared by centrifugation of murine blood at 4 °C for 20 min at […]. The reaction was started by the addition of [^125I]10 (20 μL) in the plasma (180 µL). The mixture was incubated in a shaker at 300 rpm at 37 °C, which was carried out three times. Samples (100 µL) were taken at 0, 1 and 24 h and 100 µL acetonitrile, divided into five portions, was added for deproteinization of the plasma. The samples were left in the fridge for 15 min and then centrifuged at 4 °C for 15 min at […]. The supernatant was filtered through a pore size of 0.45 μm, then analyzed by RP-HPLC with a mobile phase gradient system water (A) and methanol (B), B: 70–100%, for 20 min using a Cosmosil® 5C18 MSII (4.6 ID × 150 mm) column at a flow rate of 1 mL/min. The column temperature was maintained at 40 °C. Radioactivity was measured by an auto well gamma counter.

C=CC(=O)Nc1cc([125I])cc(Nc2nc(Nc3ccc(N4CCN(C(C)=O)CC4)cc3OC)ncc2C(F)(F)F)c1 [[^125I]10]
effect of CO-1686 pretreatment on accumulation in H1975 tumor (H1975 tumor): not inhibited | effect of CO-1686 pretreatment on accumulation in H1975 tumor (H1975 tumor; listed as [^125I]ICO1686): not reduced | tumor/blood ratio (H1975 tumor; tumor-bearing mice): approximately 1 | Biodistribution, H1975 tumor (H1975 tumor; tumor-bearing mice, Blocking (1 h), CO-1686 30 mg/kg i.p. 1 h prior): 1.65 (0.64) % ID/g tissue | Biodistribution, H1975 tumor (H1975 tumor; tumor-bearing mice, i.v., 1 h): 1.77 (0.43) % ID/g tissue | Biodistribution, H1975 tumor (H1975 tumor; tumor-bearing mice, i.v., 1 h, listed as [^125I]ICO1686): 1.77 ± 0.43 % ID/g tissue | Biodistribution, H1975 tumor (H1975 tumor; tumor-bearing mice, i.v., 4 h): 0.43 (0.08) % ID/g tissue | stability in PBS ([1]; 24 h incubation): purity decreased gradually | stability in PBS ([1]; until 1 h): slightly decomposed | cell uptake ([2]; H3255, 4 h incubation): 33.52 % dose/mg protein | reduction of accumulation by gefitinib ([2]; H3255, gefitinib 100 µM): over 50% | radiotracer excreted in feces ([3]; 24 h after injection): ~70% | Biodistribution, Blood ([3]; i.v., 10 min): 1.06 (0.19) % ID/g tissue | Biodistribution, Bone ([3]; i.v., 10 min): 1.16 (0.21) % ID/g tissue | Biodistribution, Brain ([3]; i.v., 10 min): 0.11 (0.02) % ID/g tissue | Biodistribution, Heart ([3]; i.v., 10 min): 3.11 (0.64) % ID/g tissue | Biodistribution, Kidney ([3]; i.v., 10 min): 7.48 (1.55) % ID/g tissue | Biodistribution, Large intestine ([3]; i.v., 10 min): 0.57 (0.04) % ID/g tissue | Biodistribution, Liver ([3]; i.v., 10 min): 26.69 (0.81) % ID/g tissue | Biodistribution, Lung ([3]; i.v., 10 min): 4.47 (1.39) % ID/g tissue | Biodistribution, Muscle ([3]; i.v., 10 min): 1.40 (0.16) % ID/g tissue | Biodistribution, Pancreas ([3]; i.v., 10 min): 1.93 (0.37) % ID/g tissue | Biodistribution, Small intestine ([3]; i.v., 10 min): 9.46 (2.19) % ID/g tissue | Biodistribution, Spleen ([3]; i.v., 10 min): 2.14 (0.50) % ID/g tissue | Biodistribution, Stomach ([3]; i.v., 10 min): 3.52 (2.70) % ID/organ | Biodistribution, Blood ([3]; i.v., 1 h): 0.49 (0.05) % ID/g tissue | Biodistribution, Bone ([3]; i.v., 1 h): 0.50 (0.22) % ID/g tissue | Biodistribution, Brain ([3]; i.v., 1 h): 0.05 (0.02) % ID/g tissue | Biodistribution, Heart ([3]; i.v., 1 h): 0.79 (0.13) % ID/g tissue | Biodistribution, Kidney ([3]; i.v., 1 h): 3.76 (0.40) % ID/g tissue | Biodistribution, Large intestine ([3]; i.v., 1 h): 0.53 (0.08) % ID/g tissue | Biodistribution, Liver ([3]; i.v., 1 h): 18.57 (2.72) % ID/g tissue | Biodistribution, Lung ([3]; i.v., 1 h): 1.33 (0.08) % ID/g tissue | Biodistribution, Muscle ([3]; i.v., 1 h): 0.44 (0.05) % ID/g tissue | Biodistribution, Pancreas ([3]; i.v., 1 h): 0.99 (0.26) % ID/g tissue | Biodistribution, Small intestine ([3]; i.v., 1 h): 23.96 (2.18) % ID/g tissue | Biodistribution, Spleen ([3]; i.v., 1 h): 0.90 (0.17) % ID/g tissue | Biodistribution, Stomach ([3]; i.v., 1 h): 5.10 (1.18) % ID/organ | Biodistribution, Blood ([3]; i.v., 4 h): 0.33 (0.07) % ID/g tissue | Biodistribution, Bone ([3]; i.v., 4 h): 0.29 (0.11) % ID/g tissue | Biodistribution, Brain ([3]; i.v., 4 h): 0.03 (0.01) % ID/g tissue | Biodistribution, Heart ([3]; i.v., 4 h): 0.35 (0.09) % ID/g tissue | Biodistribution, Kidney ([3]; i.v., 4 h): 2.37 (0.17) % ID/g tissue | Biodistribution, Large intestine ([3]; i.v., 4 h): 53.44 ± 6.73 % ID/g tissue and 53.44 (6.73) % ID/g tissue | Biodistribution, Liver ([3]; i.v., 4 h): 7.85 (0.92) % ID/g tissue | Biodistribution, Lung ([3]; i.v., 4 h): 0.86 (0.10) % ID/g tissue | Biodistribution, Muscle ([3]; i.v., 4 h): 0.13 (0.03) % ID/g tissue | Biodistribution, Pancreas ([3]; i.v., 4 h): 0.41 (0.03) % ID/g tissue | Biodistribution, Small intestine ([3]; i.v., 4 h): 9.81 (1.03) % ID/g tissue | Biodistribution, Spleen ([3]; i.v., 4 h): 0.58 (0.11) % ID/g tissue | Biodistribution, Stomach ([3]; i.v., 4 h): 1.38 (0.56) % ID/organ | Biodistribution, Blood ([3]; i.v., 24 h): 0.05 (0.01) % ID/g tissue | Biodistribution, Bone ([3]; i.v., 24 h): 0.07 (0.05) % ID/g tissue | Biodistribution, Brain ([3]; i.v., 24 h): 0.01 (0.01) % ID/g tissue | Biodistribution, Feces ([3]; i.v., 24 h): 69.9 % ID | Biodistribution, Heart ([3]; i.v., 24 h): 0.09 (0.05) % ID/g tissue | Biodistribution, Kidney ([3]; i.v., 24 h): 0.25 (0.01) % ID/g tissue | Biodistribution, Large intestine ([3]; i.v., 24 h): 0.34 (0.08) % ID/g tissue | Biodistribution, Liver ([3]; i.v., 24 h): 0.80 (0.10) % ID/g tissue | Biodistribution, Lung ([3]; i.v., 24 h): 0.26 (0.03) % ID/g tissue | Biodistribution, Muscle ([3]; i.v., 24 h): 0.04 (0.04) % ID/g tissue | Biodistribution, Pancreas ([3]; i.v., 24 h): 0.10 (0.11) % ID/g tissue | Biodistribution, Small intestine ([3]; i.v., 24 h): 0.10 (0.01) % ID/g tissue | Biodistribution, Spleen ([3]; i.v., 24 h): 0.08 (0.04) % ID/g tissue | Biodistribution, Stomach ([3]; i.v., 24 h): 0.08 (0.02) % ID/organ | Biodistribution, Urine ([3]; i.v., 24 h): 4.07 (0.83) % ID/g tissue | cell uptake [4]: 8.95 % dose/mg protein | stability in plasma ([5]; 24 h incubation): purity decreased gradually | stability in plasma ([5]; until 1 h): slightly decomposed; also recorded: hardly decomposed
